Publication PMC11343776 (Clinical Pharmacokinetics, 2024)
Entries after “also recorded” stand apart in the source; their conditions may differ.

Tests used:
[1] = Model simulations and covariate assessment; parameters: species or system patients with advanced or metastatic solid tumours; details: for decrease of CL/F after approximately 120 h: multiple doses
[2] = Population pharmacokinetic model of capivasertib plasma concentrations; type: in vivo, patients with advanced or metastatic solid tumours
CYP3A4 = details: single dose capivasertib 80 mg; cited from earlier work
CYP3A = details: capivasertib 400 mg b.i.d., intermittent schedule; cited from earlier work
[3] = dose range 80–800 mg; cited from earlier work
[4] = healthy subjects; cited from earlier work
ROCK1/2 = experiment: In vitro cellular kinase inhibition: ROCK1/2; type: cell-based
[5] = 400 mg b.i.d. (4/3) after multiple doses
[6] = body weight 47 kg vs 67 kg reference

NC1(C(=O)N[C@@H](CCO)c2ccc(Cl)cc2)CCN(c2nc[nH]c3nccc2-3)CC1 [capivasertib]
median AUC12h,ss [1, 5]: 7730 ng·h/mL
median Cmax,ss [1, 5]: 1340 ng/mL
decrease of CL/F after approximately 120 h ([1]; 400 mg b.i.d.): 18%
decrease of CL/F after approximately 120 h ([1]; 480 mg b.i.d.): 22%
dose proportionality of AUC and Cmax ([1]; 80–480 mg after multiple doses): proportional; also recorded: approximately proportionally
dose proportionality of AUC and Cmax ([1]; beyond 480 mg after multiple doses): more than proportional; also recorded: more than proportionally
increase in AUC12h,ss [1, 6]: 14%
increase in Cmax,ss [1, 6]: 14%
reduction in CLss/F [1, 6]: 12%
predicted impact of significant covariates on exposure to capivasertib ([1]; body weight, dose, paclitaxel, food, formulation): < 20%
increase in CLss/F ([1]; concomitant paclitaxel vs no paclitaxel): 20%
time after which steady state is achieved ([1]; simulations, three schedules, different dose levels): approximately 120 h
effective t½ ([2]; 400 mg b.i.d. (4/3)): 8.34 h
apparent volume of distribution at steady state ([2]; at 400 mg): 255.6 L
Lag1_tab absorption lag time for tablets ([2]; final model estimate, semi-fasted or fed): 0.21 h
fraction of dose absorbed by zero-order process ([2]; oral): 20%
fraction of dose absorbed using the first-order mechanism ([2]; oral): 80%
time to maximum concentration ([2]; slight variations with dose level, body weight, food status): 1.4 h
increase of capivasertib AUC by itraconazole (CYP3A4): 95%
increase in midazolam exposure (CYP3A): up to 75%
dose proportionality of plasma exposure [3]: approximately dose proportional
terminal half-life (t½) [3]: approximately 10 hours
terminal half-life (t½), range [3]: 7 to 15 h
renal clearance as share of total clearance [4]: 21%
inhibition of ROCK-mediated phosphorylation of cofilin (ROCK1/2): not effective
